Test results taken from patent publication US20250049787A1, “TREATMENT FOR ACUTE MYELOID LEUKEMIA OR LYMPHOMA” (UNIVERSITY HEALTH NETWORK, priority 2021, published 2025).
Where a name gives a salt, the structure may show the parent alone.

Experiments:
[1] = target: T1, FLT3 (Homo sapiens, UniProt P36888); experiment: Radiometric HotSpot kinase assay, FLT3; assay type: biochemical; settings: ATP 50 μM; peptide substrate 5 μM
T1 construct: purchased Reaction Biology Corp. (Malvern, PA, USA)
Description: Kinase IC50 values were determined by Reaction Biology Corp. (Malvern, PA, USA) in the Radiometric HotSpot™ Assay using recombinantly expressed kinase enzymes. Compound (I) was tested in a 10-dose IC50 curve in duplicate. Enzymes were tested at the Km [ATP] for each enzyme using the Reaction Biology binning structure. Kinase reactions were initiated by the addition of protein or peptide substrate and [γ-^33P]-adenosine triphosphate (ATP). Phosphorylated substrates were captured by spotting of the reaction mix on filter membranes, and enzymatic activity was quantified by liquid scintillation counting. Substrates and ATP concentrations are as follows: • FLT3: Peptide substrate, [EAIYAAPFAKKK], 5 μM: ATP 50 μM • FLT3-ITD (internal tandem duplication): Peptide substrate, [EAIYAAPFAKKK], 20 μM: ATP, 30 μM • FLT3 (D835Y): Peptide substrate, [EAIYAAPFAKKK], 5 μM: ATP 20 μM • TAK1: Casein, 1 mg/mL: ATP, 20 μM

[2] = tested on: DAUDI; experiment: Growth inhibition, Alamar Blue; assay type: cell-based; settings: Homo sapiens, 72 h, NHL, Burkitt's lymphoma, 3 days
Description: (§1) Cell lines were obtained from American Type Culture Collection (ATCC) and maintained according to the supplier's instructions, and from Dr. Mark Minden (Princess Margaret Cancer Centre, Toronto, Canada). Short tandem repeat (STR) profiling was used to verify authenticity of the cell lines. Peripheral blood from healthy human donors was obtained from the Hematology Malignancy Tissue Bank at the University Health Network. Peripheral blood mononuclear cells (PBMC) were prepared from the blood by density gradient centrifugation using Ficoll-Paque PLUS by manufacturer's instructions (GE Healthcare Life Sciences). […] Compound (I) tartrate was prepared as a 10 mM stock solution in 100% DMSO. The stock solution was diluted with RPMI-1640 (Invitrogen) containing 10% FBS (fetal bovine serum) such that the final concentrations ranged from 300 fM to 300 μM. Aliquots (20 μL) from each concentration were overlaid to 180 μL of pre-seeded cells to achieve final concentrations of 30 fM to 30 μM. After 3 days, cell growth in each well was assessed by Alamar Blue assay reagent (Invitrogen). Raw fluorescence (λEM=590 nm) values were adjusted by subtracting the average of the baseline readings from untreated cells assessed one day after cell seeding. Relative cell growth was calculated by comparing to DMSO-treated cells. The concentrations at which cell growth was inhibited by 50% (growth inhibition IC50) were calculated using GraphPad PRISM software (GraphPad Software Inc.).

[3] = tested on: KOPN-8; experiment: Growth inhibition, Alamar Blue; assay type: cell-based; settings: Homo sapiens, 72 h; KOPN-8, B-ALL; 3 days
Description: as §1

[4] = tested on: MOLM-13; experiment: Growth inhibition, Alamar Blue; assay type: cell-based; settings: Homo sapiens, 72 h; MOLM-13, AML M5; FLT3 ITD + wild-type, protein not expressed; 3 days
Description: as §1

[5] = tested on: MOLT-4; experiment: Growth inhibition, Alamar Blue; assay type: cell-based; settings: Homo sapiens, 72 h; MOLT-4, T-ALL; 3 days
Description: as §1

[6] = tested on: MV-4-11; experiment: Growth inhibition, Alamar Blue; assay type: cell-based; settings: Homo sapiens, MV4-11, 72 h; MV-4-11, AML M5; FLT3 ITD, protein expressed; 3 days
Description: as §1

[7] = tested on: NALM-6; experiment: Growth inhibition, Alamar Blue; assay type: cell-based; settings: Homo sapiens, 72 h; NALM-6, B-ALL; 3 days
Description: as §1

[8] = tested on: NB4; experiment: Growth inhibition, Alamar Blue; assay type: cell-based; settings: Homo sapiens, NB-4, 72 h; NB4, AML M3; 3 days
Description: as §1

[9] = tested on: OCI-AML2; experiment: Growth inhibition, Alamar Blue; assay type: cell-based; settings: Homo sapiens, 72 h; OCI-AML2, AML M4; 3 days
Description: as §1

[10] = tested on: OCI-AML3; experiment: Growth inhibition, Alamar Blue; assay type: cell-based; settings: Homo sapiens, OCI-AML-3, 72 h; OCI-AML3, AML M4; 3 days
Description: as §1

[11] = tested on: OCI-AML4; experiment: Growth inhibition, Alamar Blue; assay type: cell-based; settings: Homo sapiens, 72 h; OCI-AML4, AML M4; 3 days
Description: as §1

[12] = tested on: OCI-LY10; experiment: Growth inhibition, Alamar Blue; assay type: cell-based; settings: Homo sapiens, 72 h; OCI-LY10, NHL, ABC-DLBCL; 3 days
Description: as §1

[13] = tested on: OCI-LY3; experiment: Growth inhibition, Alamar Blue; assay type: cell-based; settings: Homo sapiens, 72 h; OCI-LY3, NHL, ABC-DLBCL; 3 days
Description: as §1

[14] = tested on: OCI-LY8; experiment: Growth inhibition, Alamar Blue; assay type: cell-based; settings: Homo sapiens, 72 h; OCI-LY8, NHL, GCB-DLBCL; 3 days
Description: as §1

[15] = tested on: PBMC; experiment: Growth inhibition, Alamar Blue; assay type: cell-based; settings: 72 h, NORMAL (healthy human donors), 3 days
Description: as §1

[16] = tested on: RAJI; experiment: Growth inhibition, Alamar Blue; assay type: cell-based; settings: Homo sapiens, 72 h, NHL, Burkitt's lymphoma, 3 days
Description: as §1

[17] = tested on: SU-DHL-8; experiment: Growth inhibition, Alamar Blue; assay type: cell-based; settings: Homo sapiens, 72 h; SU-DHL-8, NHL, GCB-DLBCL; 3 days
Description: as §1

[18] = tested on: FLT3-ITD-expressing 32D cells; experiment: Growth inhibition, 32D transfectants; assay type: cell-based; settings: 32D transfectant FLT3-ITD, without cytokines
Description: as §1, with “The concentrations at which cell growth was inhibited by 50% (growth inhibition IC50) were calculated using GraphPad PRISM software (GraphPad Software Inc.).” left out

[19] = tested on: Wild-type FLT3-expressing 32D cells; experiment: Growth inhibition, 32D transfectants; assay type: cell-based; settings: 32D transfectant wild-type FLT3, 50 ng/ml human FLT3 ligand
Description: as §1, with “The concentrations at which cell growth was inhibited by 50% (growth inhibition IC50) were calculated using GraphPad PRISM software (GraphPad Software Inc.).” left out

T1 sequence (P36888 27-993): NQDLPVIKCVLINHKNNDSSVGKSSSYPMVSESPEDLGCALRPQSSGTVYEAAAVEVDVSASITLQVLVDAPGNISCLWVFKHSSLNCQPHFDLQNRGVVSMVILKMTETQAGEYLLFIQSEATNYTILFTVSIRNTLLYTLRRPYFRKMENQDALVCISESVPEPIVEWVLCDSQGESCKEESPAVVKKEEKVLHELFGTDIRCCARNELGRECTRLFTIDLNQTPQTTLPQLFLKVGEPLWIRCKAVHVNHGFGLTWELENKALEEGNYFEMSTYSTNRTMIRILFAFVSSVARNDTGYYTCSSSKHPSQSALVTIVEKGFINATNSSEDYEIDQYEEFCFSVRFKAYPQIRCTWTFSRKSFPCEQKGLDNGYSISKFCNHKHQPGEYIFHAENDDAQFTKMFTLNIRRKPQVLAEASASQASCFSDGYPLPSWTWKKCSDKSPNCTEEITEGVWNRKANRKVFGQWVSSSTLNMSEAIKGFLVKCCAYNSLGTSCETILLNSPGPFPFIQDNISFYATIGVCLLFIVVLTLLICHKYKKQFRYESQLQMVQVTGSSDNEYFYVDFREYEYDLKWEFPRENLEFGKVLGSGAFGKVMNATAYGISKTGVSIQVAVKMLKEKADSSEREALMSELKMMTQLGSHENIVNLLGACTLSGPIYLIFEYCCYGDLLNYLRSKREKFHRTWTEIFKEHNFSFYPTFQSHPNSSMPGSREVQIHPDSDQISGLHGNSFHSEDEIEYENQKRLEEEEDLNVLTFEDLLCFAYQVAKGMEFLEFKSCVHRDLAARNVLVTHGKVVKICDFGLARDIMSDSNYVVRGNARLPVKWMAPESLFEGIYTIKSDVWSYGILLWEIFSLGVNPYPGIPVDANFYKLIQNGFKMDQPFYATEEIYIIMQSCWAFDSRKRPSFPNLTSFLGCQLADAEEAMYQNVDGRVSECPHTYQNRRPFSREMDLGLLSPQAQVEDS

CN1CCN(c2ccc3nc(-c4c(N)c5ccsc5[nH]c4=O)[nH]c3c2)CC1 [Compound (I) tartrate, 4-amino-5-(6-(4-methylpiperazin-1-yl)-1H-benzo[d]imidazol-2-yl)thieno[2,3-b]pyridin-6(7H)-one]
IC50 [1]: 0.043 nM
IC50 [2]: 1300 nM
IC50 [3]: 3300 nM
IC50 [4]: 1900 nM
IC50 [5]: 1600 nM
IC50 [6]: 3.7 nM
IC50 [7]: 10000 nM
IC50 [8]: 940 nM
IC50 [9]: 1500 nM
IC50 [10]: ≥ 30000 nM
IC50 [11]: 160 nM
IC50 [12]: 570 nM
IC50 [13]: 240 nM
IC50 [14]: 3600 nM
IC50 [15]: 14000 nM
IC50 [16]: 6600 nM
IC50 [17]: 2600 nM
IC50 [18]: 6.3 nM
IC50 [19]: 1650 nM
